Measured values as given in US10253015B2, “Pyridinyl quinolinone derivatives as mutant-isocitrate dehydrogenase inhibitors” (FORMA TM2, Inc., priority 2014, dated 2019).
Like-named read-outs stand apart in the source and are kept apart here.

Key:
[1] = test system: HCT116 isogenic IDH1-R132C mutant cells; test: Cellular 2-HG assay using HCT116 mutant IDH1 cells (R132C); assay type: cell-based; details: Homo sapiens, HCT-116; cellular 2-HG inhibition, 24 hours, RapidFire mass spectrometry; read-out: HCT IDH1 R132C Range IC50
Method: (§1) HCT116 isogenic IDH1-R132H and IDH1-R132C mutant cells were cultured in growth media (McCoy's 5 A, 10% fetal bovine serum, 1× antibiotic-antimycotic solution and 0.3 mg/mL G418) in 5% CO2 in an incubator at 37° C. To prepare the assay, cells were trypsinized and resuspended in assay media (McCoy's 5 A with no L-glutamine, 10% fetal bovine serum, 1× antibiotic-antimycotic solution and 0.3 mg/mL G418). An aliquot of 10,000 cells/100 μL was transferred to each well of a clear 96-well tissue culture plate. The cells were incubated in 5% CO2 at 37° C. in an incubator overnight to allow for proper cell attachment. An aliquot of 50 μL of compound containing assay media were then added to each well and the assay plate was kept in 5% CO2 at 37° C. in an incubator for 24 hours. The media was then removed from each well and 150 μL of a methanol/water mixture (80/20 v/v) was added to each well. The plates were kept at −80° C. freezer overnight to allow for complete cell lysis. An aliquot of 125 μL of extracted supernatant was analyzed by RapidFire high-throughout-mass spectrometry (Agilent) to determine the cellular 2-HG level. The IC50 of a given compound was calculated by fitting the dose response curve of cellular 2-HG inhibition at a given concentration with the four parameter logistic equation

[2] = molecular target: IDH1-R132H recombinant protein (Homo sapiens (Human), UniProt O75874, R132H); test: IDH1-R132H enzymatic assay; assay type: biochemical
Method: (§2) Assays were performed in a 384-well black plate. […] After the plate was centrifuged briefly, an aliquot of 10 μL of 2 mM α-ketoglutarate and 20 μM NADPH solution prepared in assay buffer was then added to each well and the reaction was maintained at 25° C. for 45 minutes. An aliquot of 10 μL of diaphorase solution (0.15 U/mL diaphorase and 30 μM Resazurin in assay buffer) was added to each well. […] The IC50 of a given compound was calculated by fitting the dose response curve of inhibition of NADPH consumption at a given concentration with the four parameter logistic equation.

[3] = molecular target: IDH1-R132C recombinant protein (Homo sapiens (Human), UniProt O75874, R132C); test: IDH1-R132C enzymatic assay; assay type: biochemical
Method: as §2

[4] = test system: HCT116 isogenic IDH1-R132H mutant cells; test: Cellular 2-HG assay using HCT116 mutant IDH1 cells (R132H); assay type: cell-based; details: Homo sapiens, HCT-116; cellular 2-HG inhibition, 24 hours, RapidFire mass spectrometry; read-out: HCT IDH1 R132H Range IC50
Method: as §1

[5] = inhibition of NADPH consumption, diaphorase/resazurin readout, read-out: Enzyme IDH1 R132H Range IC50
[6] = inhibition of NADPH consumption, diaphorase/resazurin readout, read-out: Enzyme IDH1 R132C Range IC50

Sequence of IDH1-R132C recombinant protein (O75874 whole entry R132C): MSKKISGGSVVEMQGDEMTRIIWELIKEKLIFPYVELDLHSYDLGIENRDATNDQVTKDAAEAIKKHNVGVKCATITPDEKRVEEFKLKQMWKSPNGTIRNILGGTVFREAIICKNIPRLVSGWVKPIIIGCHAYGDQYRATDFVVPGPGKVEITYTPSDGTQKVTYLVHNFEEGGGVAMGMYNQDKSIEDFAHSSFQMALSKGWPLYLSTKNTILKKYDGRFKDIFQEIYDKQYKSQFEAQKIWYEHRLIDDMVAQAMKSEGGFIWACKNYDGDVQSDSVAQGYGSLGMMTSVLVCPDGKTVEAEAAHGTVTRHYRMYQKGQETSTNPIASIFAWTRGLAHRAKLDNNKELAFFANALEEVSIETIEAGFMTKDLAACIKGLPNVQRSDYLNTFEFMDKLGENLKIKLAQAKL
Sequence of IDH1-R132H recombinant protein (O75874 whole entry R132H): as the sequence (O75874 whole entry R132C) above, with C132H counted along it

SMILES: COc1cc2[nH]c(=O)c([C@H](C)Nc3cc(C)c(C#N)cn3)cc2cc1Cl [Compound I-27, 6-{[(1S)-1-(6-chloro-7-methoxy-2-oxo-1,2-dihydroquinolin-3-yl)ethyl]amino}-4-methylpyridine-3-carbonitrile]
- IC50 [1]: 100 to 1000 nM
- IC50 [2, 5]: < 100 nM
- IC50 [3, 6]: < 100 nM
- IC50 [4]: 10 to 100 nM

SMILES: COc1nc(N[C@@H](C)c2cc3cc(Cl)ccc3[nH]c2=O)ccc1C#N [Compound I-6, 6-{[(1S)-1-(6-chloro-2-oxo-1,2-dihydroquinolin-3-yl)ethyl]amino}-2-methoxypyridine-3-carbonitrile]
- IC50 [1]: 10 to 100 nM
- IC50 [2, 5]: < 100 nM
- IC50 [3, 6]: 100 to 1000 nM
- IC50 [4]: 100 to 1000 nM

SMILES: Cc1nc(N[C@@H](C)c2cc3cc(Cl)c(OCc4ccccn4)cc3[nH]c2=O)ccc1C#N [Compound I-28, 6-{[(1S)-1-[6-chloro-2-oxo-7-(pyridin-2-ylmethoxy)-1,2-dihydroquinolin-3-yl]ethyl]amino}-2-methylpyridine-3-carbonitrile]
- IC50 [1]: < 10 nM
- IC50 [2, 5]: < 100 nM
- IC50 [3, 6]: < 100 nM
- IC50 [4]: 10 to 100 nM

SMILES: Cc1nc(NC(C)c2cc3cc(Cl)c(OCC4CC(F)(F)C4)cc3[nH]c2=O)ccc1C#N (stereo not drawn) [Compound I-30, 6-[(1-{6-chloro-7-[(3,3-difluorocyclobutyl)methoxy]-2-oxo-1,2-dihydroquinolin-3-yl}ethyl)amino]-2-methylpyridine-3-carbonitrile]
- IC50 [1]: 10 to 100 nM
- IC50 [2, 5]: < 100 nM
- IC50 [3, 6]: 100 to 1000 nM
- IC50 [4]: 10 to 100 nM

SMILES: C[C@H](Nc1nccc(N2CCOC2=O)c1F)c1cc2cc(Cl)ccc2[nH]c1=O [Compound I-14, 6-chloro-3-[(1S)-1-{[3-fluoro-4-(2-oxo-1,3-oxazolidin-3-yl)pyridin-2-yl]amino}ethyl]-1,2-dihydroquinolin-2-one]
- IC50 [1]: 100 to 1000 nM
- IC50 [2, 5]: < 100 nM
- IC50 [3, 6]: 100 to 1000 nM
- IC50 [4]: 100 to 1000 nM

SMILES: Cc1nc(NCc2cc3cc(Cl)ccc3[nH]c2=O)ccc1C#N [Compound I-58, 6-{[(6-chloro-2-oxo-1,2-dihydroquinolin-3-yl)methyl]amino}-2-methylpyridine-3-carbonitrile]
- IC50 [1]: > 1000 nM
- IC50 [2, 5]: < 100 nM
- IC50 [3, 6]: 100 to 1000 nM
- IC50 [4]: 100 to 1000 nM

SMILES: COc1cc2[nH]c(=O)c([C@H](C)Nc3ccc(C#N)c(OC)n3)cc2cc1Cl [Compound I-26, 6-{[(1S)-1-(6-chloro-7-methoxy-2-oxo-1,2-dihydroquinolin-3-yl)ethyl]amino}-2-methoxypyridine-3-carbonitrile]
- IC50 [1]: 10 to 100 nM
- IC50 [2, 5]: < 100 nM
- IC50 [3, 6]: < 100 nM
- IC50 [4]: < 10 nM

SMILES: Cc1nc(NC(C)c2cc3cc(Cl)c(OCc4ccccn4)cc3[nH]c2=O)ccc1C#N (stereo not drawn) [Compound I-29, 6-({1-[6-chloro-2-oxo-7-(pyridin-2-ylmethoxy)-1,2-dihydroquinolin-3-yl]ethyl}amino)-2-methylpyridine-3-carbonitrile]
- IC50 [1]: 10 to 100 nM
- IC50 [2, 5]: < 100 nM
- IC50 [4]: 10 to 100 nM

SMILES: Cc1nc(N[C@@H](C)c2cc3cc(Cl)ccc3[nH]c2=O)ccc1C#N [Compound I-4, (S)-6-(1-(6-chloro-2-oxo-1,2-dihydroquinolin-3-yl)ethylamino)-2-methyl nicotinonitrile]
- IC50 [1]: 100 to 1000 nM
- IC50 [2, 5]: < 100 nM
- IC50 [3, 6]: 100 to 1000 nM
- IC50 [4]: 100 to 1000 nM

SMILES: Cc1nc(NC(C)c2cc3cc(Cl)ccc3[nH]c2=O)ccc1C#N (stereo not drawn) [Compound I-9, 6-{[1-(6-chloro-2-oxo-1,2-dihydroquinolin-3-yl)ethyl]amino}-2-methylpyridine-3-carbonitrile]
- IC50 [1]: > 1000 nM
- IC50 [2, 5]: 100 to 1000 nM
- IC50 [3, 6]: 100 to 1000 nM
- IC50 [4]: 100 to 1000 nM

SMILES: COc1cc2[nH]c(=O)c([C@H](C)Nc3cc(OC)c(C#N)cn3)cc2cc1Cl [Compound I-25, 6-{[(1S)-1-(6-chloro-7-methoxy-2-oxo-1,2-dihydroquinolin-3-yl)ethyl]amino}-4-methoxypyridine-3-carbonitrile]
- IC50 [1]: 100 to 1000 nM
- IC50 [2]: < 100 nM
- IC50 [3]: < 100 nM
- IC50 [4]: 10 to 100 nM

SMILES: COc1cc2[nH]c(=O)c(C(C)Nc3ccc(C#N)c(C)n3)cc2cc1Cl (stereo not drawn) [Compound I-24, 6-{[1-(6-chloro-7-methoxy-2-oxo-1,2-dihydroquinolin-3-yl)ethyl]amino}-2-methylpyridine-3-carbonitrile]
- IC50 [1]: 100 to 1000 nM

SMILES: Cc1c(-c2ccnc(N[C@@H](C)c3cc4cc(Cl)ccc4[nH]c3=O)c2)cnn1C [Compound I-40, 6-chloro-3-[(1S)-1-{[4-(1,5-dimethyl-1H-pyrazol-4-yl)pyridin-2-yl]amino}ethyl]-1,2-dihydroquinolin-2-one]
- IC50 [1]: 100 to 1000 nM
- IC50 [2, 5]: 100 to 1000 nM
- IC50 [3, 6]: 100 to 1000 nM
- IC50 [4]: 100 to 1000 nM

SMILES: Cc1nc(N[C@@H](C)c2cc3cc(Cl)c(F)cc3[nH]c2=O)ccc1C#N [Compound I-22, 6-{[(1S)-1-(6-chloro-7-fluoro-2-oxo-1,2-dihydroquinolin-3-yl)ethyl]amino}-2-methylpyridine-3-carbonitrile]
- IC50 [1]: 100 to 1000 nM
- IC50 [2, 5]: < 100 nM
- IC50 [3, 6]: 100 to 1000 nM
- IC50 [4]: < 10 nM

SMILES: C[C@H](Nc1cccc(N2CCOC2=O)n1)c1cc2cc(Cl)ccc2[nH]c1=O [Compound I-11, 6-chloro-3-[(1S)-1-{[6-(2-oxo-1,3-oxazolidin-3-yl)pyridin-2-yl]amino}ethyl]-1,2-dihydroquinolin-2-one]
- IC50 [1]: 100 to 1000 nM

SMILES: Cc1nc(NC(C)c2cc3cc(Cl)c(F)cc3[nH]c2=O)ccc1C#N (stereo not drawn) [Compound I-21, 6-{[1-(6-chloro-7-fluoro-2-oxo-1,2-dihydroquinolin-3-yl)ethyl]amino}-2-methylpyridine-3-carbonitrile]
- IC50 [1]: 100 to 1000 nM
- IC50 [2, 5]: < 100 nM
- IC50 [3, 6]: 100 to 1000 nM
- IC50 [4]: 100 to 1000 nM

SMILES: Cc1cc(N[C@@H](C)c2cc3cc(Cl)ccc3[nH]c2=O)ncc1C#N [Compound I-5, (S)-6-((1-(6-chloro-2-oxo-1,2-dihydroquinolin-3-yl)ethyl)amino)-4-methyl nicotinonitrile]
- IC50 [1]: 100 to 1000 nM
- IC50 [2, 5]: < 100 nM
- IC50 [3, 6]: 100 to 1000 nM
- IC50 [4]: 100 to 1000 nM

SMILES: COc1nc(C#N)ccc1N[C@@H](C)c1cc2cc(Cl)ccc2[nH]c1=O [Compound I-7, 5-{[(1S)-1-(6-chloro-2-oxo-1,2-dihydroquinolin-3-yl)ethyl]amino}-6-methoxypyridine-2-carbonitrile]
- IC50 [1]: 100 to 1000 nM
- IC50 [2, 5]: < 100 nM
- IC50 [3, 6]: 1000 to 10000 nM
- IC50 [4]: 100 to 1000 nM

SMILES: COc1cc2[nH]c(=O)c(CNc3ccc(C#N)c(C)n3)cc2cc1Cl [Compound I-83, 6-{[(6-chloro-7-methoxy-2-oxo-1,2-dihydroquinolin-3-yl)methyl]amino}-2-methylpyridine-3-carbonitrile]
- IC50 [1]: > 1000 nM
- IC50 [2, 5]: < 100 nM
- IC50 [3, 6]: > 10000 nM
- IC50 [4]: > 1000 nM
